In patent US9918966B2, “Anti-cancer compositions and methods” (The Penn State Research Foundation, priority 2013, dated 2018):
Read-outs that look alike come from different tables or passages of the source.

How the values were obtained:
[1] = test system: FF2441 human fibroblast cells; assay: Cell viability, MTS assay; type: cell-based
Method: (§1) Cell viability, proliferation, apoptosis and cell cycle analysis: Viability and IC50 (μmol/L) of normal human melanocytes, fibroblast and melanoma cells following treatment with inhibitors are measured using the MTS assay (Promega, Madison, Wis.) described in Sharma A, et al., Clin Cancer Res 2009; 15:1674-85; and Madhunapantula S V, et al., Mol Cancer Ther 2008; 7:1297-308. […] IC50 values for each inhibitor in μmol/L for respective cell lines are measured from three independent experiments using GraphPad Prism version 4.01 (GraphPad Software, La Jolla, Calif.).
(§2) The number of viable cells is measured using MTS and percentage decrease in viability calculated. IC50 values for each inhibitor in μmol/L for respective cell lines are measured from three independent experiments using GraphPad Prism version 4.01 (GraphPad Software, La Jolla, Calif.).

[2] = test system: FOM103 normal human melanocytes; assay: Cell viability, MTS assay; type: cell-based; settings: Melanocyte
Method: as §1, §2

[3] = test system: WM115 vertical growth phase melanoma cells; assay: Cell viability, MTS assay; type: cell-based; settings: Homo sapiens, WM-115
Method: as §1, §2

[4] = test system: WM35 radial growth phase melanoma cells; assay: Cell viability, MTS assay; type: cell-based; settings: Homo sapiens
Method: as §1, §2

[5] = test system: 1205 Lu metastatic melanoma cells; assay: cells; settings: Homo sapiens
Method: as §1, §2

[6] = test system: UACC 903 metastatic melanoma cells; assay: cells; settings: Homo sapiens
Method: as §1, §2

Caco-2 (Colon) = assay: IC50 for killing cancer cells; type: cell-based; settings: Homo sapiens
Description: (§3) Therapeutic universality of selenocoxib-1-GSH for killing cancer cells is examined by treating pancreatic (MiaPaca-2), breast (MDA-MB-231), prostate (PC-3) or sarcoma (HT-1080) and colon (Caco2) cell. lines with the drug and establishing the IC50 for each cell line, Table III. Selenocoxib-1-GSH kills the various cancer cell lines at 2-3-fold lower concentrations than normal fibroblast cells.

HT-1080 (Fibro sarcoma) = assay: IC50 for killing cancer cells; type: cell-based; settings: Homo sapiens
Description: as §3

MDA-MB-231 (Breast) = assay: IC50 for killing cancer cells; type: cell-based; settings: Homo sapiens
Description: as §3

MiaPaca-2 (Pancreas) = assay: IC50 for killing cancer cells; type: cell-based; settings: Homo sapiens, MIA PaCa-2
Description: as §3

PC-3 (Prostate) = assay: IC50 for killing cancer cells; type: cell-based; settings: Homo sapiens
Description: as §3

1205 Lu melanoma cells = assay: Western blot analysis; type: cell-based, human; settings: 2.5-50 μmol/L for 48 h
Description: (§4) Cell lysates are harvested and processed as described in Sharma A et al., Cancer Res 2006, 66:8200-9. […] Protein lysates are collected for Western blotting. Blots are probed with total and phospho-Akt (Ser473), phospho-PRAS40 (Thr246), phospho-Erk1/2 (Thr202/Tyr204), total and Phospho-Mek1/2 (Ser217) and cleaved PARP from Cell Signaling Technology (Danvers, Mass.). Total PRAS40 from Invitrogen (Carlsbad, Calif.). Total Erk, cyclin D1, p27, Alpha-enolase and secondary antibodies conjugated with horseradish peroxidase from Santa Cruz Biotechnology (Santa Cruz Biotechnology, Santa Cruz, Calif.). COX-1 and COX-2 antibodies were obtained from Cayman Chemical Company, Ann Arbor, Mich. Immunoblots are developed using the enhanced chemiluminescence detection system (Amersham Pharmacia Biotech, Piscataway, N.J.).

UACC 903 melanoma cells = assay: Western blot analysis; type: cell-based, human; settings: UACC 903, 2.5-50 μmol/L for 48 h
Description: as §4

[7] = for Mortality at Day 7: 3 mice/group
Description: Number of mice surviving and changes in body weight after 7 days of drug treatment is scored (Table I).

[8] = 0.032 μmoles (2.5 PPM) intraperitoneally daily for seven days

With `Cc1ccc(-c2cc(C(F)(F)F)nn2-c2ccc(S(N)(=O)=O)cc2)cc1` [Celecoxib, reference compound] the IC50 ([1]; FF2441, 24 h) was over 100 µM, the IC50 ([1]; FF2441, 48 h) was over 100 µM and the IC50 ([1]; FF2441, 72 h) was 65.3 ± 3.3 µM. It also gave an IC50 ([2]; FOM103, 24 h) of over 100 µM, an IC50 ([2]; FOM103, 48 h) of over 100 µM and an IC50 ([2]; FOM103, 72 h) of 68 ± 1.2 µM. It also gave an IC50 ([3]; WM115, 24 h) of 54.4 ± 3.6 µM, an IC50 ([3]; WM115, 48 h) of 45.3 ± 2.7 µM and an IC50 ([3]; WM115, 72 h) of 41.8 ± 2.9 µM. It also gave an IC50 ([4]; WM35, 24 h) of 51.3 ± 2.3 µM, an IC50 ([4]; WM35, 48 h) of 42.3 ± 1.8 µM and an IC50 ([4]; WM35, 72 h) of 37.9 ± 3.3 µM. For the same compound, the IC50 ([5]; 24 h) was over 100 µM, the IC50 ([5]; 48 h) was 83.6 ± 3.3 µM and the IC50 ([5]; 72 h) was 66.1 ± 3.2 µM. The IC50 ([6]; UACC-903, 24 h) was over 100 µM, the IC50 ([6]; UACC-903, 48 h) was over 100 µM and the IC50 ([6]; UACC-903, 72 h) was 76.6 ± 4.4 µM. For the same compound, the IC50 (Caco-2 (Colon)) was over 100 µM, the IC50 (HT-1080 (Fibro sarcoma)) was over 100 µM and the IC50 (MDA-MB-231 (Breast)) was over 100 µM. For the same compound, the IC50 (MiaPaca-2 (Pancreas)) was over 100 µM and the IC50 (PC-3 (Prostate)) was over 100 µM.
In the case of `N#CC(=C(/N)Sc1ccccc1N)/C(C#N)=C(\N)Sc1ccccc1N` [U0126, reference compound], the COX-1 expression (1205 Lu melanoma cells) is reported as “without affecting COX-1”, the COX-2 expression (1205 Lu melanoma cells) is reported as “reduces the expression of COX-2” and the “Levels of pErk1/2” value (1205 Lu melanoma cells) is reported as “similarly decrease”. For the same compound, the COX-1 expression (UACC 903 melanoma cells) was “without affecting COX-1”, the COX-2 expression (UACC 903 melanoma cells) was “reduces the expression of COX-2” and the “Levels of pErk1/2” value (UACC 903 melanoma cells) was “similarly decrease”.
In the case of Selenocoxib-1, the “% of weight loss” value [7, 8] is reported as 14.07%, the “Mortality at Day 7” value [7, 8] is reported as 0/3 and the “% of weight loss” value ([7]; 0.032 μmoles (2.5 PPM) intraperitoneally daily for seven days, listed as selenocoxib-1) is reported as 14%. The “Mortality at Day 7” value ([7]; 0.064 μmoles (5.0 PPM) intraperitoneally daily for seven days) was 3/3 and the animal mortality ([7]; concentrations of 0.032-0.064, after seven days of treatment) was 100%.
